Values after ≈ are worked out from the molar mass of the structure shown.
Key:
Experiment in all cases: MIC by agar plate dilution method on standard strains (Example 3)
Type in all cases: cell-based
Conditions in all cases: read-out: MIC
[1] = tested on: Staphylococcus epidermidis ATCC29886
Method: (§1) Minimum growth-inhibiting concentrations of trifluoromethionine and other antibacterial drugs on standard strains were determined by an agar plate dilution method according to the standard method of Japanese Society of Chemotherapy.
(§2) Drug solutions at a concentration 10 times as high as the maximum applicable concentration were prepared as original solutions of test drugs given in Table 2 (as to solvents used for this purpose, reference should be made also to Table 2). Serial two-fold dilution series of the original solutions were prepared at desired stages, and 1 ml each of the diluted drug solutions was added to 9 ml of media given in Table 3 to prepare drug plates. Concentration range of the individual drugs used are as follows: trifluoromethionine: 400-0.025 μg/ml (15 stages), tetracycline: 100-0.025 μg/ml (13 stages), and clarithromycin: 100-0.025 μg/ml (13 stages).
(§3) • 1) Bacterial solutions stocked at −80° C. were inoculated on agar media (as to media used, reference should be made to Table 3), and then incubated at 37° C. overnight. When desired, subculturing was conducted once more on the same agar media (by overnight incubation at 37° C.). • 2) Colonies growing on the agar media were sampled by a platinum loop, suspended in liquid media (reference should be made to Table 3) and statically incubated at 37° C. for 18 hours (preculturing). • 3) Preculturing was continued up to McFarland 0.5 (McFarland 0.5=about 10^8 CFU/ml), and then the culture broths were diluted with Muellar Hinton Broth to make 10^6 CFU/ml. 5 μl each of the diluted solutions were inoculated on the above-mentioned drug plates by an inoculator Microplanter.
(§4) Thus, bacterial solutions at about 10^8 CFU/ml can be easily prepared by use of McFarland 0.5. Bacterial solutions at such a turbidity are commercially available, but can be easily prepared. McFarland 0.5 can be obtained by adding 0.5 ml of an aqueous 0.048 mol/l barium chloride solution to 99.5 ml of 1% v/v (0.18 mol/l) sulfuric acid. • 4) The individual bacteria were incubated at 37° C. for 18-20 hours and then the growth was determined in the same manner as in Example 2 to obtain minimum growth-inhibiting concentrations.

[2] = tested on: Staphylococcus epidermidis ATCC12228
Method: as §1, §2, §3, §4

[3] = tested on: Enterococcus faecalis ATCC29247
Method: as §3, with “Drug solutions at a concentration 10 times as high as the maximum applicable concentration were prepared as original solutions of test drugs given in Table 2 (as to solvents used for this purpose, reference should be made also to Table 2). Serial two-fold dilution series of the original solutions were prepared at desired stages, and 1 ml each of the diluted drug solutions was added to 9 ml of media given in Table 3 to prepare drug plates. […] • 1)” for “• 1)”, “inoculator Microplanter. […] Thus, bacterial solutions at about 10^8 CFU/ml can be easily prepared by use of McFarland 0.5. Bacterial solutions at such a turbidity are commercially available, but can be easily prepared.” for “inoculator Microplanter.”

[4] = tested on: Streptococcus pneumoniae ATCC6301
Method: as §3, with “Drug solutions at a concentration 10 times as high as the maximum applicable concentration were prepared as original solutions of test drugs given in Table 2 (as to solvents used for this purpose, reference should be made also to Table 2). Serial two-fold dilution series of the original solutions were prepared at desired stages, and 1 ml each of the diluted drug solutions was added to 9 ml of media given in Table 3 to prepare drug plates. […] • 1)” for “• 1)”, “inoculator Microplanter. […] Thus, bacterial solutions at about 10^8 CFU/ml can be easily prepared by use of McFarland 0.5. Bacterial solutions at such a turbidity are commercially available, but can be easily prepared.” for “inoculator Microplanter.”

[5] = tested on: Haemophilus influenzae ATCC33533
Method: as §3, with “Drug solutions at a concentration 10 times as high as the maximum applicable concentration were prepared as original solutions of test drugs given in Table 2 (as to solvents used for this purpose, reference should be made also to Table 2). Serial two-fold dilution series of the original solutions were prepared at desired stages, and 1 ml each of the diluted drug solutions was added to 9 ml of media given in Table 3 to prepare drug plates. […] • 1)” for “• 1)”, “inoculator Microplanter. […] Thus, bacterial solutions at about 10^8 CFU/ml can be easily prepared by use of McFarland 0.5. Bacterial solutions at such a turbidity are commercially available, but can be easily prepared.” for “inoculator Microplanter.”

[6] = tested on: Streptococcus pyogenes ATCC12353
Method: as §3, with “Drug solutions at a concentration 10 times as high as the maximum applicable concentration were prepared as original solutions of test drugs given in Table 2 (as to solvents used for this purpose, reference should be made also to Table 2). Serial two-fold dilution series of the original solutions were prepared at desired stages, and 1 ml each of the diluted drug solutions was added to 9 ml of media given in Table 3 to prepare drug plates. […] • 1)” for “• 1)”, “inoculator Microplanter. […] Thus, bacterial solutions at about 10^8 CFU/ml can be easily prepared by use of McFarland 0.5. Bacterial solutions at such a turbidity are commercially available, but can be easily prepared.” for “inoculator Microplanter.”

[7] = tested on: Serratia marcescens ATCC13880
Method: as §3, with “Drug solutions at a concentration 10 times as high as the maximum applicable concentration were prepared as original solutions of test drugs given in Table 2 (as to solvents used for this purpose, reference should be made also to Table 2). Serial two-fold dilution series of the original solutions were prepared at desired stages, and 1 ml each of the diluted drug solutions was added to 9 ml of media given in Table 3 to prepare drug plates. […] • 1)” for “• 1)”, “inoculator Microplanter. […] Thus, bacterial solutions at about 10^8 CFU/ml can be easily prepared by use of McFarland 0.5. Bacterial solutions at such a turbidity are commercially available, but can be easily prepared.” for “inoculator Microplanter.”

[8] = tested on: Streptococcus pneumoniae ATCC6306
Method: as §3, with “Drug solutions at a concentration 10 times as high as the maximum applicable concentration were prepared as original solutions of test drugs given in Table 2 (as to solvents used for this purpose, reference should be made also to Table 2). Serial two-fold dilution series of the original solutions were prepared at desired stages, and 1 ml each of the diluted drug solutions was added to 9 ml of media given in Table 3 to prepare drug plates. […] • 1)” for “• 1)”, “inoculator Microplanter. […] Thus, bacterial solutions at about 10^8 CFU/ml can be easily prepared by use of McFarland 0.5. Bacterial solutions at such a turbidity are commercially available, but can be easily prepared.” for “inoculator Microplanter.”

[9] = tested on: Haemophilus influenzae ATCC33391
Method: as §3, with “Drug solutions at a concentration 10 times as high as the maximum applicable concentration were prepared as original solutions of test drugs given in Table 2 (as to solvents used for this purpose, reference should be made also to Table 2). Serial two-fold dilution series of the original solutions were prepared at desired stages, and 1 ml each of the diluted drug solutions was added to 9 ml of media given in Table 3 to prepare drug plates. […] • 1)” for “• 1)”, “inoculator Microplanter. […] Thus, bacterial solutions at about 10^8 CFU/ml can be easily prepared by use of McFarland 0.5. Bacterial solutions at such a turbidity are commercially available, but can be easily prepared.” for “inoculator Microplanter.”

[10] = tested on: Bacillus subtilis ATCC6633
Method: as §3, with “Drug solutions at a concentration 10 times as high as the maximum applicable concentration were prepared as original solutions of test drugs given in Table 2 (as to solvents used for this purpose, reference should be made also to Table 2). Serial two-fold dilution series of the original solutions were prepared at desired stages, and 1 ml each of the diluted drug solutions was added to 9 ml of media given in Table 3 to prepare drug plates. […] • 1)” for “• 1)”, “inoculator Microplanter. […] Thus, bacterial solutions at about 10^8 CFU/ml can be easily prepared by use of McFarland 0.5. Bacterial solutions at such a turbidity are commercially available, but can be easily prepared.” for “inoculator Microplanter.”

[11] = tested on: Moraxella (Branhamella) catarrhalis ATCC25238
Method: as §3, with “Drug solutions at a concentration 10 times as high as the maximum applicable concentration were prepared as original solutions of test drugs given in Table 2 (as to solvents used for this purpose, reference should be made also to Table 2). Serial two-fold dilution series of the original solutions were prepared at desired stages, and 1 ml each of the diluted drug solutions was added to 9 ml of media given in Table 3 to prepare drug plates. […] • 1)” for “• 1)”, “inoculator Microplanter. […] Thus, bacterial solutions at about 10^8 CFU/ml can be easily prepared by use of McFarland 0.5. Bacterial solutions at such a turbidity are commercially available, but can be easily prepared.” for “inoculator Microplanter.”

[12] = tested on: Haemophilus influenzae ATCC49247
Method: as §3, with “Drug solutions at a concentration 10 times as high as the maximum applicable concentration were prepared as original solutions of test drugs given in Table 2 (as to solvents used for this purpose, reference should be made also to Table 2). Serial two-fold dilution series of the original solutions were prepared at desired stages, and 1 ml each of the diluted drug solutions was added to 9 ml of media given in Table 3 to prepare drug plates. […] • 1)” for “• 1)”, “inoculator Microplanter. […] Thus, bacterial solutions at about 10^8 CFU/ml can be easily prepared by use of McFarland 0.5. Bacterial solutions at such a turbidity are commercially available, but can be easily prepared.” for “inoculator Microplanter.”

[13] = tested on: Escherichia coli ATCC25922
Method: as §3, with “Drug solutions at a concentration 10 times as high as the maximum applicable concentration were prepared as original solutions of test drugs given in Table 2 (as to solvents used for this purpose, reference should be made also to Table 2). Serial two-fold dilution series of the original solutions were prepared at desired stages, and 1 ml each of the diluted drug solutions was added to 9 ml of media given in Table 3 to prepare drug plates. […] • 1)” for “• 1)”, “inoculator Microplanter. […] Thus, bacterial solutions at about 10^8 CFU/ml can be easily prepared by use of McFarland 0.5. Bacterial solutions at such a turbidity are commercially available, but can be easily prepared.” for “inoculator Microplanter.”

[14] = tested on: Moraxella (Branhamella) catarrhalis ATCC25240
Method: as §3, with “Drug solutions at a concentration 10 times as high as the maximum applicable concentration were prepared as original solutions of test drugs given in Table 2 (as to solvents used for this purpose, reference should be made also to Table 2). Serial two-fold dilution series of the original solutions were prepared at desired stages, and 1 ml each of the diluted drug solutions was added to 9 ml of media given in Table 3 to prepare drug plates. […] • 1)” for “• 1)”, “inoculator Microplanter. […] Thus, bacterial solutions at about 10^8 CFU/ml can be easily prepared by use of McFarland 0.5. Bacterial solutions at such a turbidity are commercially available, but can be easily prepared.” for “inoculator Microplanter.”

## CN(C)[C@@H]1C(O)=C(C(N)=O)C(=O)[C@@]2(O)C(O)=C3C(=O)c4c(O)cccc4[C@@](C)(O)[C@H]3C[C@@H]12 [TC, Tetracycline]
[1]
  MIC: 0.39 µg/mL (≈ 0.878 µM)
[2]
  MIC: 50 µg/mL (≈ 113 µM)
[3]
  MIC: 25 µg/mL (≈ 56.3 µM)
[4]
  MIC: 0.1 µg/mL (≈ 0.225 µM)
[5]
  MIC: 0.39 µg/mL (≈ 0.878 µM)
[6]
  MIC: 0.2 µg/mL (≈ 0.45 µM)
[7]
  MIC: 100 µg/mL (≈ 225 µM)
[8]
  MIC: 0.2 µg/mL (≈ 0.45 µM)
[9]
  MIC: 0.78 µg/mL (≈ 1.76 µM)
[10]
  MIC: 0.2 µg/mL (≈ 0.45 µM)
[11]
  MIC: 0.2 µg/mL (≈ 0.45 µM)
[12]
  MIC: 25 µg/mL (≈ 56.3 µM)
[13]
  MIC: 1.56 µg/mL (≈ 3.51 µM)
[14]
  MIC: 0.2 µg/mL (≈ 0.45 µM)

Reference: patent US20050175550A1, “Compositions for oral use” (priority 2000, published 2005)
